# Laboratory results as given in patent US11377442B2, “Small molecule agonists and antagonists of NR2F6 activity” (ZANDER THERAPEUTICS, INC., priority 2016, dated 2022).
# Read-outs that look alike come from different tables or passages of the source.
# Columns and labels:
# Format in all cases: cell-based
# [1] = target: T1, NR2F6 (Homo sapiens, UniProt P10588); experiment: NR2F6 agonist screening, Firefly signal cmpd/DMSO
# T1 construct: expressed in transfected cells; also transient transfection
# T1 sequence (P10588 1-404): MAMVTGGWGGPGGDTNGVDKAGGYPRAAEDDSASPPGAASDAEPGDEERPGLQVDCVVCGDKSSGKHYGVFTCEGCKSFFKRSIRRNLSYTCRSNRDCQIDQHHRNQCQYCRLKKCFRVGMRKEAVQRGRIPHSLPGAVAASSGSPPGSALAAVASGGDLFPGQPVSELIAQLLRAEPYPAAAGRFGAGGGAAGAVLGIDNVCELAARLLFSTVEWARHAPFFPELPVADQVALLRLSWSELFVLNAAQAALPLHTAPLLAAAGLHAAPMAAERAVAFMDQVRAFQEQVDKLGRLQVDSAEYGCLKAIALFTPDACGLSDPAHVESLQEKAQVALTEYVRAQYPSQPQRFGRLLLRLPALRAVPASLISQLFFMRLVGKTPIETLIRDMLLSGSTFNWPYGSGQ
# [2] = system: Renilla; experiment: Renilla signal in NR2F6 agonist screening, cmpd/DMSO; conditions: Renilla, F4
# [3] = system: HEK293 pGL4; experiment: Firefly_pGL signal, cmpd/DMSO (pGL4 control cells); conditions: Homo sapiens
# [4] = target: T2, NR2F6 LBD (Homo sapiens, UniProt P10588); experiment: NR2F6 LBD transient transfection; conditions: LBD
# T2 construct: expressed in transfected cells
# T2 sequence (P10588 165-393 limits assumed): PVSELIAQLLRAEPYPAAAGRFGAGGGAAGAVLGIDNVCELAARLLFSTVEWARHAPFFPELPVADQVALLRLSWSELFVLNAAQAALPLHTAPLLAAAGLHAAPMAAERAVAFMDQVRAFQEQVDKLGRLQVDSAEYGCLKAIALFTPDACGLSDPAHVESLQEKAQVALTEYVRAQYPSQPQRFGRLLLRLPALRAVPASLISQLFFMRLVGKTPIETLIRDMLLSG
# Summary of the method: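 LBD-transfected cells treated at 40, 10, 2 and 0.5 μM (4 replicates); cytotoxicity measured in parallel, normalized to DMSO (0%) and zero signal (100%). Higher concentrations excluded where signal loss reflected toxicity.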
# [5] = read-out: Renilla, F4, cmpd/DMSO (mean)
# [6] = 1% FBS, read-out: Renilla, F4, 1% FBS, cmpd/DMSO (mean)
# [7] = 10% FBS, read-out: Renilla, F4, 10% FBS, cmpd/DMSO (mean)
# [8] = HEK293, 0.5 uM, pGL4, read-out: Firefly pGL4, cmpd/DMSO (mean)
# [9] = HEK293, 2 uM, pGL4, read-out: Firefly pGL4, cmpd/DMSO (mean)
# [10] = HEK293, 10 uM, pGL4, read-out: Firefly pGL4, cmpd/DMSO (mean)
# [11] = HEK293, 40 uM, pGL4, read-out: Firefly pGL4, cmpd/DMSO (mean)
# [12] = HEK293, pGL4, 1% FBS, 0.5 uM, read-out: Firefly, pGL4, 1% FBS, cmpd/DMSO (mean)
# [13] = HEK293, pGL4, 1% FBS, 2 uM, read-out: Firefly, pGL4, 1% FBS, cmpd/DMSO (mean)
# [14] = HEK293, pGL4, 1% FBS, 10 uM, read-out: Firefly, pGL4, 1% FBS, cmpd/DMSO (mean)
# [15] = HEK293, pGL4, 1% FBS, 40 uM, read-out: Firefly, pGL4, 1% FBS, cmpd/DMSO (mean)
# [16] = HEK293, pGL4, 10% FBS, 0.5 uM, read-out: Firefly, pGL4, 10% FBS, cmpd/DMSO (mean)
# [17] = HEK293, pGL4, 10% FBS, 2 uM, read-out: Firefly, pGL4, 10% FBS, cmpd/DMSO (mean)
# [18] = HEK293, pGL4, 10% FBS, 10 uM, read-out: Firefly, pGL4, 10% FBS, cmpd/DMSO (mean)
# [19] = HEK293, pGL4, 10% FBS, 40 uM, read-out: Firefly, pGL4, 10% FBS, cmpd/DMSO (mean)
structure (smiles),measurement,setting,value
O=S1(=O)C[C@H](N2CCCCC2)[C@@H](S(=O)(=O)c2ccc(Cl)cc2)C1 [Compound D123],"Firefly F4, cmpd/DMSO (mean)",[1]; 0.5 uM,1.8
same,"Firefly F4, cmpd/DMSO (mean)",[1]; 2 uM,2.5
same,"Firefly F4, cmpd/DMSO (mean)",[1]; 10 uM,7.1
same,"Firefly F4, cmpd/DMSO (mean)",[1]; 40 uM,0.7
same,"F4, Firefly/Renilla for S/B(F4) > 3","[1]; 1% FBS, 10 uM",2.7
same,"Firefly, F4/pGL4 for S/B(F4) > 3","[1]; 1% FBS, 10 uM",1.6
same,"F4, Firefly/Renilla for S/B(F4) > 3","[1]; 10% FBS, 10 uM",4.0
same,"Firefly, F4/pGL4 for S/B(F4) > 3","[1]; 10% FBS, 10 uM",2.5
same,"Firefly, F4, 1% FBS, cmpd/DMSO (mean)","[1]; 1% FBS, 0.5 uM",1.3
same,"Firefly, F4, 1% FBS, cmpd/DMSO (mean)","[1]; 1% FBS, 2 uM",2.1
same,"Firefly, F4, 1% FBS, cmpd/DMSO (mean)","[1]; 1% FBS, 10 uM",4.4
same,"Firefly, F4, 1% FBS, cmpd/DMSO (mean)","[1]; 1% FBS, 40 uM",0.2
same,"Firefly, F4, 10% FBS, cmpd/DMSO (mean)","[1]; 10% FBS, 0.5 uM",1.1
same,"Firefly, F4, 10% FBS, cmpd/DMSO (mean)","[1]; 10% FBS, 2 uM",2.0
same,"Firefly, F4, 10% FBS, cmpd/DMSO (mean)","[1]; 10% FBS, 10 uM",7.5
same,"Firefly, F4, 10% FBS, cmpd/DMSO (mean)","[1]; 10% FBS, 40 uM",0.8
same,"Activity, cmpd/DMSO",[1]; Table 31,6.1
same,fold induction at 0.5 µM,[2]; [5],1.1
same,fold induction at 2 µM,[2]; [5],1.4
same,fold induction at 10 µM,[2]; [5],1.9
same,fold induction at 40 µM,[2]; [5],0.3
same,fold induction at 0.5 µM,[2]; [6],1.1
same,fold induction at 2 µM,[2]; [6],1.4
same,fold induction at 10 µM,[2]; [6],1.6
same,fold induction at 40 µM,[2]; [6],0.1
same,fold induction at 0.5 µM,[2]; [7],0.9
same,fold induction at 2 µM,[2]; [7],1.1
same,fold induction at 10 µM,[2]; [7],1.9
same,fold induction at 40 µM,[2]; [7],0.2
same,fold induction at 0.5 µM,[3]; [8],1.2
same,fold induction at 2 µM,[3]; [9],1.7
same,fold induction at 10 µM,[3]; [10],3.4
same,fold induction at 40 µM,[3]; [11],0.6
same,fold induction at 0.5 µM,[3]; [12],1.1
same,fold induction at 2 µM,[3]; [13],1.8
same,fold induction at 10 µM,[3]; [14],2.7
same,fold induction at 40 µM,[3]; [15],0.8
same,fold induction at 0.5 µM,[3]; [16],1.2
same,fold induction at 2 µM,[3]; [17],1.6
same,fold induction at 10 µM,[3]; [18],3
same,fold induction at 40 µM,[3]; [19],0.8
same,"Firefly LBD, cmpd/DMSO (mean)",[4]; 0.5 uM,1.0
same,"Firefly LBD, cmpd/DMSO (mean)",[4]; 2 uM,1.9
same,"Firefly LBD, cmpd/DMSO (mean)",[4]; 10 uM,4.9
same,"Firefly LBD, cmpd/DMSO (mean)",[4]; 40 uM,0.4
O=S1(=O)C[C@H](NC2CCCCCC2)[C@@H](S(=O)(=O)c2ccc(Cl)cc2)C1 [Compound D130],"Firefly F4, cmpd/DMSO (mean)",[1]; 0.5 uM,1.4
same,"Firefly F4, cmpd/DMSO (mean)",[1]; 2 uM,2.2
same,"Firefly F4, cmpd/DMSO (mean)",[1]; 10 uM,4.0
same,"Firefly F4, cmpd/DMSO (mean)",[1]; 40 uM,1.6
same,"F4, Firefly/Renilla for S/B(F4) > 3","[1]; 1% FBS, 10 uM",2.3
same,"Firefly, F4/pGL4 for S/B(F4) > 3","[1]; 1% FBS, 10 uM",1.8
same,"F4, Firefly/Renilla for S/B(F4) > 3","[1]; 10% FBS, 10 uM",2.7
same,"Firefly, F4/pGL4 for S/B(F4) > 3","[1]; 10% FBS, 10 uM",1.4
same,"F4, Firefly/Renilla for S/B(F4) > 3","[1]; 10% FBS, 40 uM",2.4
same,"Firefly, F4/pGL4 for S/B(F4) > 3","[1]; 10% FBS, 40 uM",2.0
same,"Firefly, F4, 1% FBS, cmpd/DMSO (mean)","[1]; 1% FBS, 0.5 uM",0.7
same,"Firefly, F4, 1% FBS, cmpd/DMSO (mean)","[1]; 1% FBS, 2 uM",1.2
same,"Firefly, F4, 1% FBS, cmpd/DMSO (mean)","[1]; 1% FBS, 10 uM",3.6
same,"Firefly, F4, 1% FBS, cmpd/DMSO (mean)","[1]; 1% FBS, 40 uM",0.6
same,"Firefly, F4, 10% FBS, cmpd/DMSO (mean)","[1]; 10% FBS, 0.5 uM",1.1
same,"Firefly, F4, 10% FBS, cmpd/DMSO (mean)","[1]; 10% FBS, 2 uM",1.2
same,"Firefly, F4, 10% FBS, cmpd/DMSO (mean)","[1]; 10% FBS, 10 uM",3.4
same,"Firefly, F4, 10% FBS, cmpd/DMSO (mean)","[1]; 10% FBS, 40 uM",5.0
same,fold induction at 0.5 µM,[2]; [5],1.1
same,fold induction at 2 µM,[2]; [5],1.2
same,fold induction at 10 µM,[2]; [5],1.5
same,fold induction at 40 µM,[2]; [5],1.8
same,fold induction at 0.5 µM,[2]; [6],1.1
same,fold induction at 2 µM,[2]; [6],1.2
same,fold induction at 10 µM,[2]; [6],1.6
same,fold induction at 40 µM,[2]; [6],1.9
same,fold induction at 0.5 µM,[2]; [7],0.8
same,fold induction at 2 µM,[2]; [7],0.9
same,fold induction at 10 µM,[2]; [7],1.3
same,fold induction at 40 µM,[2]; [7],2.1
same,fold induction at 0.5 µM,[3]; [8],1.2
same,fold induction at 2 µM,[3]; [9],1.8
same,fold induction at 10 µM,[3]; [10],3.4
same,fold induction at 40 µM,[3]; [11],0.6
same,fold induction at 0.5 µM,[3]; [12],1.2
same,fold induction at 2 µM,[3]; [13],2
same,fold induction at 10 µM,[3]; [14],2
same,fold induction at 40 µM,[3]; [15],0.9
same,fold induction at 0.5 µM,[3]; [16],1
same,fold induction at 2 µM,[3]; [17],1.6
same,fold induction at 10 µM,[3]; [18],2.5
same,fold induction at 40 µM,[3]; [19],2.5
same,"Firefly LBD, cmpd/DMSO (mean)",[4]; 0.5 uM,1.1
same,"Firefly LBD, cmpd/DMSO (mean)",[4]; 2 uM,1.7
same,"Firefly LBD, cmpd/DMSO (mean)",[4]; 10 uM,3.1
same,"Firefly LBD, cmpd/DMSO (mean)",[4]; 40 uM,0.7
